Assay results: publication PMC6723713, “Purification, Characterization and Evaluation of Inhibitory Mechanism of ACE Inhibitory Peptides from Pearl Oyster (Pinctada fucata martensii) Meat Protein Hydrolysate” (Marine Drugs, 2019)
Where two headings read alike, the source gives them in different places. Values belong to the molecule of their own block, whether it stands above or below them. Where a SMILES comes first, the peptide text is derived from it.

Columns and labels:
ACE [1] = molecular target: T1, ACE (Oryctolagus cuniculus, UniProt P12822); assay: Inhibition pattern by Lineweaver-Burk plot; assay type: biochemical; conditions: HHL 1-5 mM, HLHT 0, 295.86, 591.72 μM, GWA 0, 98.62, 197.24 μM, pre-incubated 37 °C 10 min, 5 min incubation with HHL, HPLC 228 nm
T1 construct: purchased Sigma-Aldrich (Shanghai, China)
T1 sequence (P12822 34-1310): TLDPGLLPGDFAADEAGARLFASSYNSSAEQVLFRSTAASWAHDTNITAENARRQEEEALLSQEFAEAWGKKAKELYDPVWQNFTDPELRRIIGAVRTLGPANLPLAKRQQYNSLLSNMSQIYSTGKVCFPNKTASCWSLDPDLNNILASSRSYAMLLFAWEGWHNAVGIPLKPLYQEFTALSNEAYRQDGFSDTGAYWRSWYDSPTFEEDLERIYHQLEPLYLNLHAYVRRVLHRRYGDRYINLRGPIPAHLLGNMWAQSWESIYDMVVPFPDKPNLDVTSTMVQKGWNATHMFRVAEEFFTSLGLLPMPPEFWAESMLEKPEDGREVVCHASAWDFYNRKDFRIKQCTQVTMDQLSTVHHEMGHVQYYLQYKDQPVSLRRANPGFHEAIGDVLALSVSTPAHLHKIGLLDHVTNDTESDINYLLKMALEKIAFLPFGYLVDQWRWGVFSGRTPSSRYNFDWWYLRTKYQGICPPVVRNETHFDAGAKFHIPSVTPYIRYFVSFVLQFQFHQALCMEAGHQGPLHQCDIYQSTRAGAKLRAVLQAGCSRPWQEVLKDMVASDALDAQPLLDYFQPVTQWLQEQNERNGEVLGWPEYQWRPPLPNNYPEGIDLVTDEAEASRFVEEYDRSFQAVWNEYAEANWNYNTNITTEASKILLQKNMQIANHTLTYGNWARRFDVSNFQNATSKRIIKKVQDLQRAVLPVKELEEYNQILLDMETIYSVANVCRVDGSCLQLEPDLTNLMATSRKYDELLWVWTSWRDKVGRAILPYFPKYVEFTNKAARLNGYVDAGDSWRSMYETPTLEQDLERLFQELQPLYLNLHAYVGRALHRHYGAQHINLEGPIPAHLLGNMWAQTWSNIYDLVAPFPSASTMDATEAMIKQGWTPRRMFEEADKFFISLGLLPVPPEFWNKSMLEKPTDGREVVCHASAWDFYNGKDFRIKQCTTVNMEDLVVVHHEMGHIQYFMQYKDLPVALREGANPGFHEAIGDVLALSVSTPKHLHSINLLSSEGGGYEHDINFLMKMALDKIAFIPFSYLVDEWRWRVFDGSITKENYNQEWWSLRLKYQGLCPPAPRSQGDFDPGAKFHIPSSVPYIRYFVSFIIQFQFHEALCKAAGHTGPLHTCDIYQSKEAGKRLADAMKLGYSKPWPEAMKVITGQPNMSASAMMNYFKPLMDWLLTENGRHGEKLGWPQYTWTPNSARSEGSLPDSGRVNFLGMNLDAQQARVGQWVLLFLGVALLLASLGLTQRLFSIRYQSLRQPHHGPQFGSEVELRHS
Protocol: The inhibitory patterns of purified peptides HLHT and GWA on ACE were evaluated by incubating various concentrations (1, 2, 3, 4, and 5 mM) of HHL with ACE in the absence and presence of inhibitory peptides. The concentrations of HLHT were set as 0, 295.86, and 591.72 μM while those of GWA were set as 0, 98.62, and 197.24 μM. The purified ACE inhibitory peptide (30 µL) at various concentrations and ACE solution (30 µL) were mixed and pre-incubated at 37 °C for 10 min. Subsequently, HHL (40 µL) was added and incubated for 5 min at 37 °C. The reaction was terminated by adding 1 M HCl (150 µL). The released hippuric acid (HA) was quantified using HPLC at 228 nm. The ACE inhibitory pattern in the presence of the inhibitor was determined using the Lineweaver–Burk plot, where the reciprocal of HHL concentration was used as the independent variable (X-axis) and the reciprocal of production rate of HA as the dependent variable (Y-axis).

[2] = molecular target: T2, Angiotensin-I-converting enzyme (ACE) (Oryctolagus cuniculus, UniProt P12822); assay: In vitro assay of ACE inhibitory activity; assay type: biochemical; conditions: triplicate, mean ± SD; for ACE inhibitory activity: 0.54 mg/mL protein concentration, second RP-HPLC fractions; for IC50: logarithmic regression
T2 construct: purchased Sigma-Aldrich (Shanghai, China)
T2 sequence (P12822 34-1310): T1 sequence (P12822 34-1310)
Protocol: ACE inhibitory activity in vitro was measured according to the reported method. The activity was determined for each step of separation, and fraction with the highest ACE inhibitory activity was collected for further purification. The IC50 value (the concentration of peptide inhibiting 50% of enzyme activity) was determined by logarithmic regression analysis.
(§1) All the experiments were performed in triplicate and mean values with ± SD (standard deviation) were reported. All data were analyzed by one-way ANOVA, using SPSS 17.0 software (Chicago, IL, USA). A value of p < 0.05 was considered statistically significant.

SD rats = assay: Antihypertensive activity in SD rats, SBP and DBP after intravenous administration; assay type: in vivo; conditions: 10 mg/kg
Protocol: The antihypertensive efficacy of POMPH was evaluated in male SD rats (10 weeks old, 250 ± 30 g body weight, specific pathogen-free, provided by the animal experimental center of Guangxi medical University, China). All rats were cared and fed following the standards for laboratory animals established by People’s Republic of China (GB14925-2001) and animal handling followed the Declaration of Helsinki and the Guiding Principles in the Care and Use of Animals. The rats were exposed to intraperitoneal injection L-NNA (L-nitro-arginine) once a day for four weeks prior to the experiments. The POMPH at 10 mg/kg, dissolved in a vehicle of 0.9% NaCl, were intravenously administered. The concentration of HLHT and GWA in POMPH were 1.8 µg/mg and 1.2 µg/mg, respectively. The efficacy of POMPH on lowering SBP and diastolic blood pressure (DBP) was compared to that of captopril (10 mg/kg). Control rats were administrated with the same volume of saline solution. SBP and DBP were determined by the noninvasive tail cuff method using BP-2010 (Softron Beijing biotechnology Co., Ltd) at 0 min (before) and 5, 10, 20 and 45 min after the administration.
as §1

ACE [3] = molecular target: T1, ACE; conditions: cited from earlier work
Excerpt: Table 2 Summary of ACE inhibitory peptides having similar structure with purified peptides. | column: IC50 (μM) || Table 3 Inhibition pattern of ACE inhibitory peptides derived from marine products. | column: Inhibition Pattern; IC50 (μM)

[4] = molecular target: T3, Angiotensin I converting enzyme (UniProt P12822)
T3 sequence: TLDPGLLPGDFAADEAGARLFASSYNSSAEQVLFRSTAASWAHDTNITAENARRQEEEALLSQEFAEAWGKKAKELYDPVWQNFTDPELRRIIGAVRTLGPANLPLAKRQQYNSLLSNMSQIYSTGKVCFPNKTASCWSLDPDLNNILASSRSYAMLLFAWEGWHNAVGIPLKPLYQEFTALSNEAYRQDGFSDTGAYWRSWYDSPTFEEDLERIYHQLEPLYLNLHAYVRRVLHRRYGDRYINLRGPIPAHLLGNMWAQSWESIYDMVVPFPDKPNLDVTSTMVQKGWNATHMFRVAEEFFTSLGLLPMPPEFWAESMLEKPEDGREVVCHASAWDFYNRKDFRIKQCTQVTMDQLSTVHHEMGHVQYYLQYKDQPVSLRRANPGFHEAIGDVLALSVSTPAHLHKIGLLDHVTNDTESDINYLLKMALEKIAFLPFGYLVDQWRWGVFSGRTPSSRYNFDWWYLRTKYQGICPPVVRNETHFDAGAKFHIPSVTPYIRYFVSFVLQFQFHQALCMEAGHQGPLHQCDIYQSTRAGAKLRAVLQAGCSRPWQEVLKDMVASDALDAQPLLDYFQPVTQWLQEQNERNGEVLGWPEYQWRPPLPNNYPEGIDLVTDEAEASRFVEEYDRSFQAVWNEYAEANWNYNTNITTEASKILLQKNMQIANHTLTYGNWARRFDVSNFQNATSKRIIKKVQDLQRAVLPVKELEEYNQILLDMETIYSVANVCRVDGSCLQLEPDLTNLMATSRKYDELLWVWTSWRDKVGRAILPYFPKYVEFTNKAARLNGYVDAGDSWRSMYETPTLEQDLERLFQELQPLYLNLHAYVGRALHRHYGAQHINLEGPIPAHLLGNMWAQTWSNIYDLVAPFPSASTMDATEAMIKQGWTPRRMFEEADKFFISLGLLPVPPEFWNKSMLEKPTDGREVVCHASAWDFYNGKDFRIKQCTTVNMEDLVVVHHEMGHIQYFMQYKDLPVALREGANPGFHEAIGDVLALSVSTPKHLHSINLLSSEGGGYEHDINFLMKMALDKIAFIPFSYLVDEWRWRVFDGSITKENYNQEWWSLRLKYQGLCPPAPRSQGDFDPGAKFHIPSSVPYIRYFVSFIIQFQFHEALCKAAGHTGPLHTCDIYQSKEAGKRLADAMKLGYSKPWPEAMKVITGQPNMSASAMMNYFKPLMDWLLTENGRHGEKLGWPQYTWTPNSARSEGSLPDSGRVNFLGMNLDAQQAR

[5] = molecular target: T3, Angiotensin I converting enzyme; remark: listed apart in the source
[6] = synthesized peptide (98% purity)

Inhibition Pattern (ACE [1]): competitive inhibition pattern | ACE inhibitory activity [2]: 84.71 ± 1.27% | IC50 ([2]; peptide purified from POMPH): 109 ± 1.45 µM | IC50 [2, 6]: 98.9 ± 5.73 µM
Molecule: C[C@H](NC(=O)[C@H](Cc1c[nH]c2ccccc12)NC(=O)CN)C(=O)O [GWA, Gly-Trp-Ala] (H-Gly-Trp-Ala-OH)

ACE inhibitory activity [2]: 64.73 ± 1.32% | IC50 ([2]; peptide purified from POMPH): 458.1 ± 3.24 µM | IC50 [2, 6]: 452.2 ± 2.36 µM
Molecule: CC(C)C[C@H](NC(=O)[C@@H](N)Cc1c[nH]cn1)C(=O)N[C@@H](Cc1c[nH]cn1)C(=O)N[C@H](C(=O)O)[C@@H](C)O [HLHT, His-Leu-His-Thr] (H-HLHT-OH)

Molecule: C[C@H](CS)C(=O)N1CCC[C@H]1C(=O)O [captopril]
change in SBP vs control, in words (SD rats; 0-45 min): significant decrease in SBP | maximum decrease in SBP (SD rats; 20 min, male L-NNA-treated SD rats, tail cuff): 27.0 mmHg | SBP beyond 20 min (SD rats; beyond 20 min (to 45 min)): remained stable | change in DBP vs control, in words (SD rats; in comparison with control group): significantly changed in comparison with control group | DBP after 20 min of intravenous administration (SD rats; "decreased to", 20 min, male L-NNA-treated SD rats, tail cuff): 39.5 mmHg

Molecule: CRQHTLGHNT-QTSIAQ
Inhibition Pattern (ACE [3]; ref [32]): Non-competitive

Molecule: CRQHTLGHNT-QTSIAQ (CRQHTLGHNTQTSIAQ)
IC50 (ACE [3]; ref [32]): 80 µM

Molecule: EVSQGRP
IC50 (ACE [3]; ref [32]): 50 µM | Inhibition Pattern (ACE [3]; ref [32]): Mixed inhibition

Molecule: FEDYVPLSCF
IC50 (ACE [3]; ref [31]): 10.8 µM | Inhibition Pattern (ACE [3]; ref [31]): Mixed inhibition

Molecule: GDLGKTTTVSN-WSPPKYKDTP
Inhibition Pattern (ACE [3]; ref [33]): Non-competitive

Molecule: GDLGKTTTVSN-WSPPKYKDTP (GDLGKTTTVSNWSPPKYKDTP)
IC50 (ACE [3]; ref [33]): 11.3 µM

Molecule: GWAP
IC50 (ACE [3]; ref [28]): 3.86 µM

IC50 of ACE inhibitory activity (enzyme activity on HHL), peptide purified from POMPH [4]: 109 µM | ACE inhibitory activity (%) of fraction F62 at a protein concentration of 0.54 mg/mL [5]: 84.7%
Molecule: Gly-Trp-Ala, purified from pearl oyster meat protein hydrolysate (fraction F62) (peptide)

IC50 of ACE inhibitory activity (enzyme activity on HHL), synthesized peptide [4]: 98.9 µM
Molecule: Gly-Trp-Ala, synthesized (peptide)

Molecule: HLPLP
IC50 (ACE [3]; ref [28]): 41 µM

Molecule: HLPLPLL
IC50 (ACE [3]; ref [28]): 34.4 µM

Molecule: IWHHT
IC50 (ACE [3]; ref [28]): 5.1 µM

Molecule: VELYP
IC50 (ACE [3]; ref [34]): 5.22 µM | Inhibition Pattern (ACE [3]; ref [34]): Non-competitive

Molecule: VVYPWTTQRF
IC50 (ACE [3]; ref [35]): 66 µM | Inhibition Pattern (ACE [3]; ref [35]): Non-competitive

Molecule: VWDPPKFD
IC50 (ACE [3]; ref [31]): 9.1 µM | Inhibition Pattern (ACE [3]; ref [31]): Non-competitive

Molecule: VWYHT
IC50 (ACE [3]; ref [28]): 28.3 µM

IC50 of ACE inhibitory activity (enzyme activity on HHL), synthesized peptide [4]: 452 µM
Molecule: HLHT [His-Leu-His-Thr, synthesized]

IC50 of ACE inhibitory activity (enzyme activity on HHL), peptide purified from POMPH [4]: 458 µM | ACE inhibitory activity (%) of fraction F51 at a protein concentration of 0.54 mg/mL [5]: 64.7%
Molecule: HLHT [His-Leu-His-Thr, purified from pearl oyster meat protein hydrolysate (fraction F51)]
